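1) Cells in 96-well plates. 2) Compound, 48 h, 5 concentrations. 3) Linear interpolation between surrounding doses. 4) Unreached endpoint = highest concentration. At the GI50, growth is halved.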 The source made the active and inactive calls. No stated cut-off is given here; in the data, active = GI50 up to about 1.1 µM and inactive = higher.
Legend:
Test in all cases: NCI anticancer screen, dose series, 48 h
[1] = system: K562
[2] = system: UO-31
[3] = system: SK-MEL-5
[4] = system: KM12
[5] = system: A549
[6] = system: M14
[7] = system: OVCAR-4
[8] = system: RXF 393
[9] = system: SNB-75
[10] = system: HCT-116
[11] = system: CCRF-CEM
[12] = system: HOP-62
[13] = system: U-251
[14] = system: NCI-H226
[15] = system: SW-620
[16] = system: Malme-3M
[17] = system: HT-29
[18] = system: RPMI-8226

Row | Structure (SMILES) | GI50 [1] | GI50 [2] | GI50 [3] | GI50 [4] | GI50 [5] | GI50 [6] | GI50 [7] | GI50 [8] | GI50 [9] | GI50 [10] | GI50 [11] | GI50 [12] | GI50 [13] | GI50 [14] | GI50 [15] | GI50 [16] | GI50 [17] | GI50 [18]
1 | CC(C)(C)C1CC[C@H]2c3c([nH]c4ccccc34)[C@H]3C(=O)N(c4ccc(F)cc4)C(=O)[C@H]3[C@H]2C1 (some centres not stated) | 20.7 µM (inactive) | 15.8 µM (inactive) | 18.7 µM (inactive) | 14.1 µM (inactive) | 12 µM (inactive) | 18.5 µM (inactive) | 11.2 µM (inactive) | 27.4 µM (inactive) | 10.5 µM (inactive) | 11.6 µM (inactive) | 16.7 µM (inactive) | 16.5 µM (inactive) | 8.75 µM (inactive) | 19.1 µM (inactive) | 17 µM (inactive) | 16.9 µM (inactive) |  | 
2 | O=C1OC(c2ccccc2)=N/C1=C\c1ccc(Oc2ccc(Cl)c(Cl)c2)cc1 | 24.4 µM (inactive) | 21.8 µM (inactive) | 30.1 µM (inactive) | 50 µM (inactive) | 43.1 µM (inactive) | 49.5 µM (inactive) |  | 25.8 µM (inactive) |  | 33.2 µM (inactive) | 23.1 µM (inactive) | 88.3 µM (inactive) | 24.1 µM (inactive) |  | 37.7 µM (inactive) | 26 µM (inactive) | 69 µM (inactive) | 
3 | CC(C)CCCC(C)C1CCC2C3CC([N+](=O)[O-])=C4CC(O)CCC4(C)C3CCC12C (configuration not stated) | 9.62 µM (inactive) |  | > 10 µM (inactive) | 16.4 µM (inactive) | 23.2 µM (inactive) | 13.4 µM (inactive) | 21.4 µM (inactive) | 23.6 µM (inactive) | 17.1 µM (inactive) | 14.8 µM (inactive) | 18.2 µM (inactive) | 19.9 µM (inactive) | 15.5 µM (inactive) |  | 25.9 µM (inactive) | 19.8 µM (inactive) | 17.9 µM (inactive) | 5.02 µM (inactive)
4 | COc1cc(C=O)c(-c2c(C=O)ccc3c2OCO3)c(OC)c1OC | 37.2 µM (inactive) | > 100 µM (inactive) | > 100 µM (inactive) | 78.3 µM (inactive) | > 100 µM (inactive) | 74.1 µM (inactive) | > 100 µM (inactive) |  | 55.2 µM (inactive) | > 100 µM (inactive) | 33.8 µM (inactive) | > 100 µM (inactive) | 70.1 µM (inactive) | > 100 µM (inactive) | 38.2 µM (inactive) | 67.3 µM (inactive) | 69.2 µM (inactive) | 56.5 µM (inactive)
5 | O=C(c1ccccc1)C(C(=O)c1ccccc1)C1(O)C(=O)c2ccccc2C1=O | 15.8 µM (inactive) | 36.1 µM (inactive) | > 10 µM (inactive) | 51.5 µM (inactive) | 29.3 µM (inactive) | 26.9 µM (inactive) |  | 0.253 µM (active) | 24.8 µM (inactive) | > 10 µM (inactive) | 20.4 µM (inactive) | 29.4 µM (inactive) | 21 µM (inactive) | 37.1 µM (inactive) | 38.7 µM (inactive) | 24.2 µM (inactive) | 39.7 µM (inactive) | 31.1 µM (inactive)
6 | O=S(=O)(c1cccc(N=C=S)c1)c1cccc(N=C=S)c1 | 16.3 µM (inactive) | 28.7 µM (inactive) | 19.7 µM (inactive) | 27.5 µM (inactive) | > 100 µM (inactive) | 11.4 µM (inactive) |  | 8.11 µM (inactive) |  | 18.1 µM (inactive) | 5.51 µM (inactive) | 11.3 µM (inactive) | 18.9 µM (inactive) |  | > 10 µM (inactive) | 18.9 µM (inactive) |  | 28.7 µM (inactive)
7 | Cn1c(NC(=O)NC23CC4CC(CC(C4)C2)C3)nc2ccccc21 | > 100 µM (inactive) | > 100 µM (inactive) | 91 µM (inactive) | > 100 µM (inactive) | > 100 µM (inactive) | 47.8 µM (inactive) | 4.22 µM (inactive) | 15.7 µM (inactive) | 3.94 µM (inactive) | 15.3 µM (inactive) |  | 30.5 µM (inactive) | 48.8 µM (inactive) | 93.5 µM (inactive) | > 100 µM (inactive) | 17.5 µM (inactive) | > 100 µM (inactive) | > 100 µM (inactive)
8 | COc1cc(Nc2cnc3cc(N)ccc3n2)cc(OC)c1OC | 42.3 µM (inactive) | 61.2 µM (inactive) | 69 µM (inactive) | > 100 µM (inactive) | > 100 µM (inactive) | 98.6 µM (inactive) | > 100 µM (inactive) |  | > 100 µM (inactive) | > 100 µM (inactive) | 40.3 µM (inactive) | 97.7 µM (inactive) | 65.2 µM (inactive) |  | > 100 µM (inactive) | > 100 µM (inactive) | 62.5 µM (inactive) | 
9 | Nc1ccc(C(=O)NN2C(=O)C(Cl)C2c2cc(Br)cc(Br)c2O)cc1 (configuration not stated) |  | 3.34 µM (inactive) | 16.5 µM (inactive) | 22.8 µM (inactive) | 14.3 µM (inactive) | 12.8 µM (inactive) | 10.3 µM (inactive) | 13.3 µM (inactive) | 18 µM (inactive) | 6.79 µM (inactive) | 5.53 µM (inactive) | 12.1 µM (inactive) | 11.1 µM (inactive) | 5.82 µM (inactive) | 16.7 µM (inactive) | 17.3 µM (inactive) | 34.9 µM (inactive) | > 100 µM (inactive)
10 | NC1=C(C(=O)O)C(=O)C(Nc2c(O)cccc2C(=O)O)=CC1=O | > 100 µM (inactive) | > 100 µM (inactive) | 76 µM (inactive) | > 100 µM (inactive) | > 100 µM (inactive) | 45.4 µM (inactive) | > 100 µM (inactive) | 31.6 µM (inactive) | > 100 µM (inactive) | > 100 µM (inactive) |  | > 100 µM (inactive) | > 100 µM (inactive) | > 100 µM (inactive) | > 100 µM (inactive) | 40.1 µM (inactive) | > 100 µM (inactive) | > 100 µM (inactive)
11 | COc1ccc2c3c1O[C@]1(C)C34CCN(C)C(C2)C42C=C[C@@]1(OC)c1c(O)ccc(O)c12 | > 100 µM (inactive) | > 100 µM (inactive) | > 100 µM (inactive) | > 100 µM (inactive) | > 100 µM (inactive) |  |  | > 100 µM (inactive) | > 100 µM (inactive) | > 100 µM (inactive) | > 100 µM (inactive) | > 100 µM (inactive) | > 100 µM (inactive) |  | > 100 µM (inactive) | 64.7 µM (inactive) | > 100 µM (inactive) | > 100 µM (inactive)
12 | CCN1CCC(O)(c2ccc(C)cc2)C(C(=O)c2ccc(C)cc2)C1 (configuration not stated) | 32.1 µM (inactive) | 28.2 µM (inactive) | > 42.3 µM (inactive) | 33.1 µM (inactive) | > 75.9 µM (inactive) | 36.7 µM (inactive) | 21.5 µM (inactive) |  | 71.9 µM (inactive) | 16.7 µM (inactive) | 18.3 µM (inactive) | > 100 µM (inactive) | > 52.5 µM (inactive) | > 100 µM (inactive) | 16.8 µM (inactive) | 19.5 µM (inactive) | 19.8 µM (inactive) | 12.9 µM (inactive)
13 | O=[N+]([O-])c1ccc(C2=NN(c3ccccc3)C[N+](c3ccc(Br)cc3)=N2)cc1 | 70.3 µM (inactive) | > 100 µM (inactive) | > 100 µM (inactive) | > 100 µM (inactive) | 82 µM (inactive) | > 100 µM (inactive) | > 100 µM (inactive) | 31.1 µM (inactive) | > 100 µM (inactive) | 89.5 µM (inactive) |  | > 100 µM (inactive) | 71.3 µM (inactive) | > 100 µM (inactive) | > 100 µM (inactive) | > 100 µM (inactive) | > 100 µM (inactive) | > 100 µM (inactive)
14 | COc1ccc2c3c([nH]c2c1[N+](=O)[O-])C(C)N(C(=O)/C=C/c1ccccc1)CC3 (configuration not stated) | 2.88 µM (inactive) | 28 µM (inactive) |  | 4.24 µM (inactive) | 14.3 µM (inactive) | 5.92 µM (inactive) | 21.9 µM (inactive) | 3.27 µM (inactive) |  |  | 3.29 µM (inactive) | 5.28 µM (inactive) | 7.01 µM (inactive) | 10.9 µM (inactive) | 3.56 µM (inactive) |  | 3.89 µM (inactive) | 2.78 µM (inactive)
15 | c1cnn(CN(Cn2cccn2)Cn2cccn2)c1 | > 100 µM (inactive) | > 100 µM (inactive) | > 100 µM (inactive) | > 100 µM (inactive) | > 100 µM (inactive) | > 100 µM (inactive) | > 100 µM (inactive) | > 100 µM (inactive) | > 100 µM (inactive) | > 100 µM (inactive) | > 100 µM (inactive) | > 100 µM (inactive) | > 100 µM (inactive) |  | > 100 µM (inactive) |  |  | 35.5 µM (inactive)
16 | CN(C)c1ccc2c(c1)C(=O)N(OS(=O)(=O)c1ccc([N+](=O)[O-])cc1)C2=O | 31.6 µM (inactive) | 23.1 µM (inactive) | 41.1 µM (inactive) | 25.1 µM (inactive) | 39.2 µM (inactive) | 17.4 µM (inactive) | 15.7 µM (inactive) | 13.9 µM (inactive) | 31.6 µM (inactive) | > 10 µM (inactive) | 18.7 µM (inactive) | 37.1 µM (inactive) | 18.9 µM (inactive) | 72.8 µM (inactive) | 20.4 µM (inactive) | 31.2 µM (inactive) | 21.7 µM (inactive) | 
17 | Cc1cc(C)cc(Sc2c([N+](=O)[O-])ncn2C)c1 | 11.2 µM (inactive) | 13.7 µM (inactive) | 13.8 µM (inactive) | 18.9 µM (inactive) | 26.6 µM (inactive) | 14 µM (inactive) | 15.4 µM (inactive) |  | 21.3 µM (inactive) | 13.8 µM (inactive) | 15.6 µM (inactive) | > 100 µM (inactive) | 14.6 µM (inactive) | 6.03 µM (inactive) | 14 µM (inactive) | 7.28 µM (inactive) | 16.2 µM (inactive) | 9.98 µM (inactive)
